Experimental data: patent US11999727B2 (Tango Therapeutics, Inc., priority 2020, dated 2024)

Tests used:
[1] = target: T1, PRMT5 (Homo sapiens, UniProt O14744); assay: PRMT5 biochemical IC50 assay with SAM as cofactor; conditions: PRMT5, SAM as cofactor; read-out: SAM IC50
T1 construct: purchased Viva (custom protein)

[2] = target: T1, PRMT5; assay: PRMT5 biochemical IC50 assay with no cofactor; conditions: PRMT5, no cofactor; read-out: No Cofactor/rel IC50
Source text: Table 1 indicates IC50 values (μM) against PRMT5 for exemplary compounds in the presence of SAM as cofactor, with no cofactor, and with MTA as cofactor, respectively (columns 4-6). […] Ki values can be calculated from the IC50 values as described in the Examples section. As detailed in the Examples section, for the assay performed in the presence of SAM, IC50=Ki×1.5 (Ki=IC50/1.5).

[3] = target: T1, PRMT5; assay: PRMT5 biochemical IC50 assay with MTA as cofactor; conditions: PRMT5, MTA as cofactor; read-out: MTA IC50
[4] = test system: HAP1 MTAP-intact cell line; assay: SDMA in-cell western assay, HAP1 MTAP-intact; assay type: cell-based; conditions: Homo sapiens, HAP1, SDMA in-cell western, HAP1 MTAP-intact; read-out: MTAP HAP1 intact IC50
Method in brief: (§1)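 IC50 values come from SDMA signal quantified by in-cell western in two HAP1 lines, one with native MTAP levels and one lacking MTAP.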

[5] = test system: HAP1 MTAP-deleted cell line; assay: SDMA in-cell western assay, HAP1 MTAP-deleted; assay type: cell-based; conditions: for IC50: Homo sapiens, HAP1, SDMA in-cell western, HAP1 MTAP-deleted, read-out: HAP1 MTAP deleted IC50; for MTAP intact/deleted ratio: IC50 ratio HAP1 MTAP-intact / HAP1 MTAP-deleted, SDMA in-cell western
Method in brief: as §1

[6] = test system: HAP1 MTAP-deleted cell line; assay: Viability assay, MTAP-deleted cell line; assay type: cell-based; conditions: Homo sapiens, HAP1, viability assay, HAP1 MTAP-deleted; read-out: HAP1 MTAP deleted viability
Source text: Table 1 additionally indicates IC50 values in a viability assay for the MTAP-deleted cell line (column 10), indicating the effect of treatment with compound on cell survival.

T1 sequence (O14744 whole entry): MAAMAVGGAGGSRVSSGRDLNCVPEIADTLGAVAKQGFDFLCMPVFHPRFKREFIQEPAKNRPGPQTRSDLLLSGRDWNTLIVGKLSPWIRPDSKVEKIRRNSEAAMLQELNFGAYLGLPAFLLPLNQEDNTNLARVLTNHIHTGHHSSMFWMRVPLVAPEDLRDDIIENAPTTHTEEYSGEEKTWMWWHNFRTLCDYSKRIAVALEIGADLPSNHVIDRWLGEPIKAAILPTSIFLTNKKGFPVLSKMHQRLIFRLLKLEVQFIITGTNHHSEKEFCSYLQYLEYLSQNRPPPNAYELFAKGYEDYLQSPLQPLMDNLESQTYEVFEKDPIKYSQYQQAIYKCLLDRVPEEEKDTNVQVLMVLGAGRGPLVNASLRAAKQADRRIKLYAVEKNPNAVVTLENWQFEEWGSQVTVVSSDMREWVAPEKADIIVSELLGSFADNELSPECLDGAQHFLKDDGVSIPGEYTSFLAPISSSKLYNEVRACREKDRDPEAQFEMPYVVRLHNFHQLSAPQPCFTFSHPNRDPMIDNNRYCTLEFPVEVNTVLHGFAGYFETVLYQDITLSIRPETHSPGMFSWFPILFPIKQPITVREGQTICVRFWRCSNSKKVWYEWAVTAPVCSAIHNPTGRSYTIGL
T1 sequence (Q9BQA1 whole entry partner): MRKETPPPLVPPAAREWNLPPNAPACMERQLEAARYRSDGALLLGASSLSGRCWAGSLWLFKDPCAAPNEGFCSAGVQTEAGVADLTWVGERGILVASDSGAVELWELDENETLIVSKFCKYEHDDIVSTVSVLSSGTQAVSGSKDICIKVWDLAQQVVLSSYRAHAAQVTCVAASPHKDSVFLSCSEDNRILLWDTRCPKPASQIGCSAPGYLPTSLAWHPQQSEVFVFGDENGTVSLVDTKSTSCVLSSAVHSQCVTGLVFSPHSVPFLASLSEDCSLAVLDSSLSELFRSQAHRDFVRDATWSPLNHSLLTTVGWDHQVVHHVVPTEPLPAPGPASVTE

SMILES | IC50 [1] [nM] | IC50 [2] [nM] | IC50 [3] [nM] | IC50 [4] [nM] | IC50 [5] [nM] | MTAP intact/deleted ratio [5] | IC50 [6] [nM]
Cc1ccc([C@H]2CC[C@H](C)CN2C(=O)C(=O)Nc2cnc(N)c(C)c2)cn1 (single isomer, unassigned) [Compound 707] | > 500 | > 500 | > 500 | > 1000 | > 1000 | B (an IC50 ratio greater than or equal to 3 fold but lower than 10 fold) | > 10000
CCc1cc(NC(=O)C(=O)N2C[C@@H](C)CC[C@@H]2c2ccccc2)cnc1N (single isomer, unassigned) [Compound 709] | > 500 | > 500 | 50 to 500 | > 1000 | > 1000 | C (an IC50 ratio of less than 3 fold) | > 10000
CC(=O)Nc1ccc([C@H]2CC[C@H](C)CN2C(=O)C(=O)Nc2cnc(N)c(C)c2)s1 (single isomer, unassigned) [Compound 717] | > 500 | > 500 | > 500 | > 1000 | > 1000 | C (an IC50 ratio of less than 3 fold) | > 10000
C[C@@H]1CN(C(=O)C(=O)Nc2cncc(C(N)=O)c2)[C@@H](c2ccc(F)cc2)CC1(F)F (single isomer, unassigned) [Compound 718] | > 500 | > 500 | > 500 | > 1000 | > 1000 | C (an IC50 ratio of less than 3 fold) | > 10000
Cc1nc2cc([C@H]3CC[C@H](C)CN3C(=O)C(=O)Nc3cnc(N)c(C)c3)ccc2s1 (single isomer, unassigned) [Compound 719] | 50 to 500 | < 50 | < 50 | 100 to 1000 | < 100 | A (an IC50 ratio greater than or equal to 10 fold) | < 1000
CCc1cc(NC(=O)C(=O)N2C[C@H](C)CC[C@H]2c2ccc3c(c2)CCC(=O)N3)cnc1N (single isomer, unassigned) [Compound 720] | 50 to 500 | < 50 | < 50 | 100 to 1000 | < 100 | A (an IC50 ratio greater than or equal to 10 fold) | < 1000
CCc1cc(NC(=O)C(=O)N2C[C@@H](C)C(F)(F)C[C@@H]2c2ccc(F)c(F)c2)cnc1N (single isomer, unassigned) [Compound 721] | 50 to 500 | < 50 | < 50 | > 1000 | < 100 | A (an IC50 ratio greater than or equal to 10 fold) | < 1000
CNS(=O)(=O)c1ccc([C@H]2CC[C@H](C)CN2C(=O)C(=O)Nc2cncc(C(N)=O)c2)cc1 (single isomer, unassigned) [Compound 722] | 50 to 500 | 50 to 500 | < 50 | > 1000 | > 1000 | C (an IC50 ratio of less than 3 fold) | > 10000
C[C@H]1CC[C@H](c2ccc(S(N)(=O)=O)cc2)N(C(=O)C(=O)Nc2cncc(C(N)=O)c2)C1 (single isomer, unassigned) [Compound 724] | > 500 | > 500 | > 500 | > 1000 | > 1000 | C (an IC50 ratio of less than 3 fold) | > 10000
C[C@@H]1CC[C@@H](c2ccc(S(N)(=O)=O)cc2)N(C(=O)C(=O)Nc2cncc(C(N)=O)c2)C1 (single isomer, unassigned) [Compound 725] | 50 to 500 | 50 to 500 | < 50 | > 1000 | > 1000 | C (an IC50 ratio of less than 3 fold) | > 10000
Cc1ncc(NC(=O)C(=O)N2C[C@H](C)CC[C@H]2c2ccc3c(c2)CCC(=O)N3)cc1Cl (single isomer, unassigned) [Compound 726] | 50 to 500 | < 50 | < 50 | > 1000 | < 100 | A (an IC50 ratio greater than or equal to 10 fold) | < 1000
Cc1ncc(NC(=O)C(=O)N2C[C@@H](C)CC[C@@H]2c2ccc3c(c2)CCC(=O)N3)cc1Cl (single isomer, unassigned) [Compound 727] | > 500 | > 500 | > 500 | > 1000 | > 1000 | C (an IC50 ratio of less than 3 fold) | > 10000
CCc1cc(NC(=O)C(=O)N2C[C@H](C)C(F)(F)C[C@H]2c2ccc(F)c(F)c2)cnc1N (single isomer, unassigned) [Compound 728] | > 500 | > 500 | > 500 | > 1000 | > 1000 | C (an IC50 ratio of less than 3 fold) | > 10000
CCc1cc(NC(=O)C(=O)N2C[C@@H](C)CC[C@@H]2c2ccc3c(c2)CCC(=O)N3)cnc1N (single isomer, unassigned) [Compound 729] | > 500 | > 500 | > 500 | > 1000 | 100 to 1000 | A (an IC50 ratio greater than or equal to 10 fold) | 1000 to 10000

Continued, in another order:

IC50 [1] [nM] | IC50 [2] [nM] | IC50 [3] [nM] | IC50 [4] [nM] | IC50 [5] [nM] | SMILES | MTAP intact/deleted ratio [5] | IC50 [6] [nM]
> 500 | > 500 | > 500 | > 1000 | > 1000 | Cc1nc2cc([C@@H]3CC[C@@H](C)CN3C(=O)C(=O)Nc3cnc(N)c(C)c3)ccc2s1 (single isomer, unassigned) [Compound 730] | C (an IC50 ratio of less than 3 fold) | > 10000
50 to 500 | 50 to 500 | < 50 | > 1000 | < 100 | C[C@H]1CN(C(=O)C(=O)Nc2cncc(C(N)=O)c2)[C@H](c2ccc(F)cc2)CC1(F)F (single isomer, unassigned) [Compound 731] | A (an IC50 ratio greater than or equal to 10 fold) | 1000 to 10000
50 to 500 | 50 to 500 | < 50 | > 1000 | 100 to 1000 | CC(=O)Nc1ccc([C@@H]2CC[C@@H](C)CN2C(=O)C(=O)Nc2cnc(N)c(C)c2)s1 (single isomer, unassigned) [Compound 732] | A (an IC50 ratio greater than or equal to 10 fold) | 1000 to 10000
50 to 500 | < 50 | < 50 | 100 to 1000 | < 100 | Cc1cc(NC(=O)C(=O)N2C[C@@H](C)CC[C@@H]2c2ccc(C(N)=O)s2)cnc1N (single isomer, unassigned) [Compound 733] | A (an IC50 ratio greater than or equal to 10 fold) | < 1000
50 to 500 | < 50 | < 50 | > 1000 | < 100 | Cc1cc(NC(=O)C(=O)N2C[C@@H](C)CC[C@@H]2c2cc(F)cc(F)c2)cnc1N (single isomer, unassigned) [Compound 734, N-(6-amino-5-methylpyridin-3-yl)-2-(2-(3,5-difluorophenyl)-5-methylpiperidin-1-yl)-2-oxoacetamide] | A (an IC50 ratio greater than or equal to 10 fold) | 1000 to 10000
< 50 | < 50 | < 50 | 100 to 1000 | < 100 | Cc1cc(NC(=O)C(=O)N2C[C@H](C)C(F)(F)C[C@H]2c2ccccc2)cnc1N (single isomer, unassigned) [Compound 735] | A (an IC50 ratio greater than or equal to 10 fold) | < 1000
50 to 500 | < 50 | < 50 | > 1000 | < 100 | CCc1cc(NC(=O)C(=O)N2C[C@H](C)CC[C@H]2c2ccccc2)cnc1N (single isomer, unassigned) [Compound 736] | A (an IC50 ratio greater than or equal to 10 fold) | < 1000
> 500 | > 500 | > 500 | > 1000 | > 1000 | COc1ncc(NC(=O)C(=O)N2C[C@@H](C)CC[C@@H]2c2cc(F)c(F)c(F)c2)cc1C(N)=O (single isomer, unassigned) [Compound 739] | B (an IC50 ratio greater than or equal to 3 fold but lower than 10 fold) | > 10000
